Values quoted from earlier work in patent US11020390B2, “Bioequivalent pharmaceutical composition of vortioxetine hydrobromide” (UNICHEM LABORATORIES LTD, priority 2017, dated 2021).

## Br.Cc1ccc(Sc2ccccc2N2CCNCC2)c(C)c1 [vortioxetine hydrobromide, 1-[2-(2,4-Dimethyl-phenylsulfanyl)-phenyl]-piperazine, hydrobromide]
  solubility in water: relatively poor
